Marks after values point to notes of the source that are not given here. Ends that are not written are not given here.
Experiments:
Assay type in all cases: in vivo, BALB/c mice
thymus gland = experiment: Immunity organ weight test, thymus gland index; conditions: for weight of thymus gland (thymus gland index), X ± SD (%): healthy mice, saline 0.12 ± 0.02; for effect on the weight of the thymus gland (summary): statistically significant difference from saline in any of the dosage groups 0.5-500 μg/kg/day
Method: (§1) One day after the last test substance administration (day 16), the liver, spleen, and thymus gland were separated and blotted dry with filter paper and weighed. The phagocytosis index α was calculated as below: α=(^3√{square root over ( )}K)(W÷WLS)
Thymus gland index (%)=(thymus weight/body weight)×100%

anti-SRBC antibody = experiment: Sheep Red Blood Cell (SRBC) hemolysis test, antibody formation; conditions: for anti-SRBC antibody formation, X ± SD (Unit): healthy mice, SRBC day 12 (IFN-γ, IL-2 3×10^5 IU/kg/day), saline 32 ± 7; for effect on the synthesis of anti-SRBC antibody upon the antigenic challenge (summary): statistically significant difference from saline in any of the dosage groups 0.5-500 μg/kg/day
Method: Sheep red blood cells (SRBC) were prepared by collecting blood from cervical vein and put into a sterile flask with glass beads. The flask was shaken for 3 minutes and the blood then mixed with Alsever solution (glucose 2.05 g, NaCl 0.4 g, […] 0.8 g, adjust to 100 ml with distilled water) and stored at 4° C. Immediately before use, samples were centrifuged at 130 g, 5 minutes to collect the SRBC. The cells were washed two times by re-suspension and centrifugation in normal saline. Then the cell pellet was collected by centrifugation at 180 g for 10 minutes and re-suspended in saline to make the final working SRBC suspension, 2% (v/v).
Complement was prepared by adding 10 volumes of fresh Cavy serum into one volume centrifuge packed SRBC, and then gently shaking for 30 minutes at 4° C. The SRBC was removed by centrifugation at 200 g for 10 minutes. 10 volumes of normal saline were added to obtain the working complement solution.
The test substances were administered as described in section 1.1, plus intraperitoneal injection 0.2 ml SRBC per mouse on day 12. On the day after the last test substance administration (day 16), blood was collected from the eye canthus and left at room temperature for one hour for serum exudation. After centrifugation at 200 g for 10 minutes, the serum was diluted by 500 times with normal saline.
To 1 ml diluted mouse serum of each mouse, 0.5 ml SRBC suspension was added. Ice cold. Then 1 ml working complement solution was added and incubated at 37° C. water bath for 10 minutes. Reactions were terminated by ice cold. Samples were then centrifuged at 200 g for 10 minutes to obtain the supernatant.
To 1 ml of this supernatant, 3 ml Drabkin solution was added and left at room temperature for 10 minutes. OD540 nm was obtained.
Reference OD540 nm was obtained by mixing 0.25 ml SRBC suspension with Drabkin solution to 4 ml and placed at room temperature for 10 minutes before OD540 nm was taken.
Sample serum index=(OD540 nm of test sample÷reference OD540 nm)×500

NK cell = NK cell cytotoxicity activity test (spleen cells of treated mice against YAC-1 target cells, MTT); conditions: for NK cell cytotoxic activity, X ± SD (%): healthy mice; for effect on the cytotoxic activity of NK cells (summary): statistically significant difference from saline in any of the dosage groups 0.5-500 μg/kg/day
Method: (§2) The above substances were all dissolved in 0.5 ml saline and injected intraperitoneal (i.p.) for 15 continuous days, once per day.
(§3) Ten mice per group. The day after the last test substance administration, the mice were sacrificed by cervical dislocation. The spleen was isolated aseptically and manually dispersed in cold D-Hank's solution using an injection needle. The dispersed cell suspension was further sieved through a 100 gauge 150 μm diameter stainless steel sieve. After centrifugation at 200 g for 10 minutes, the supernatant was discarded. The cell pellet was re-suspended in 10 volume of Tris-NH4Cl buffer and then kept standing still for 10 minutes at room temperature. The suspended cells were collected by centrifugation at 150 g for 10 minutes. The cells were washed 2-4 times with cold D-Hank's solution by re-suspending and collecting by centrifugation with condition as described above. The washed cells were then diluted to the desired cell densities by RPMI-1640 culture medium, containing 10% fetal bovine serum.
Mice spleen cells were prepared to 4×10^6/ml as described in section 1.1 above. Target cells YAC-1 were brought to log phase and adjusted to 1×10^5/ml. Using a 96 wells cell culture plate, […] were added to the control well containing only the spleen cells; […] and 100 μl culture medium were added to the control well containing only target cells; 100 μl mouse spleen cells and 100 μl target cells were added to the NK activity assay well. Three parallel sets of the above were prepared per mouse.
Samples were centrifuged at 150 g for 10 minutes to collect the cells. The supernatant was discarded and 50 μl/well MTT of 1 mg/ml was added. The reaction-mixture was then shaken for 2 minutes, and incubated at 37° C., 5% CO2 for 4 hours. The supernatant was discarded after centrifugation at 150 g for 10 minutes. […] 40 mM HCl-2-propanol was added and shaken for 3 minutes. An ELISA reader was used to obtain OD570 nm of each well referenced at 630 nm.

spleen = experiment: Immunity organ weight test, spleen index; conditions: for weight of spleen (spleen index), X ± SD (%): healthy mice, saline 0.53 ± 0.05; for effect on the weight of the spleen (summary): statistically significant difference from saline in any of the dosage groups 0.5-500 μg/kg/day
Method: as §1
Spleen index (%)=(spleen weight/body weight)×100%

T lymphocyte = T lymphocyte transformation test (ConA-stimulated spleen cells of treated mice, MTT); conditions: for X ± SD (stimulation index): healthy mice, saline 1.3 ± 0.1; for effect on T lymphocyte transformation (summary): statistically significant difference from saline in any of the dosage groups 0.5-500 μg/kg/day
Method: as §2, §3
Spleen cells of density 1×10^6/ml were placed onto a 96 wells cell culture plate, 100 μL/well, three parallel wells each of the assay sample and control sample per mouse. To the assay wells, 100 μl/well ConA of 100 μg/ml in RPMI-1640 was added, and […] plain RPMI-1640 was used for the controls. The cells were incubated for 66 hrs at 37° C., 5% CO2. The cells were then pelleted by centrifugation at 150 g for 10 minutes.
50 μl/well MTT of 1 mg/ml in RPMI-1640 was added to the cell pellet and the cells re-suspended by shaking for 2 minutes. The incubation was continued for 4 hours. The supernatant was discarded after centrifugation at 150 g for 10 minutes. 120 μl 40 mM HCl-2-propanol was added to the cell pellet and shaken for 3 minutes. […]
Each mouse formed three assay wells and three control wells. The Stimulation Index (SI) of each mouse was obtained by first deriving the average OD of the three parallel wells, then dividing the value of the assay wells by the control wells.

mononuclear phagocyte = experiment: Carbon particle clearance test, phagocytosis function; parameters: key to X ± SD (phagocytotic index): α = cube root of K × (body weight ÷ liver+spleen weight)
Method: On the next day after the last test substance administration (day 16), the mice were injected with […] body weight India ink (5 times dilution with normal saline) from the tail vein.
One minute and five minutes after Indian ink injection, 20 μl blood was obtained from the eye canthus with a heparinized tubing. The blood was mixed with 2 ml 0.1% w/v Na2CO3 and then OD680 nm obtained. The outline clear index K was calculated by the following formula: K=(lgA1−lgA2)÷(t2−t1)
as §1

[1] = peptide 5 μg/kg/day i.p. 15 days (IFN-γ, IL-2 3×10^5 IU/kg/day)
[2] = peptide 50 μg/kg/day i.p. 15 days (IFN-γ, IL-2 3×10^5 IU/kg/day)
[3] = peptide 0.5 μg/kg/day i.p. 15 days
[4] = peptide 5 μg/kg/day i.p. 15 days
[5] = peptide 50 μg/kg/day i.p. 15 days
[6] = peptide 500 μg/kg/day i.p. 15 days
[7] = peptide 500 μg/kg/day i.p. 15 days (IFN-γ, IL-2 3×10^5 IU/kg/day), saline 63 ± 9
[8] = peptide 500 μg/kg/day i.p. 15 days (IFN-γ, IL-2 3×10^5 IU/kg/day)
[9] = peptide 0.5 μg/kg/day i.p. 15 days (IFN-γ, IL-2 3×10^5 IU/kg/day)

Substance	weight of thymus gland (thymus gland index), X ± SD (%) (thymus gland; [1])	weight of thymus gland (thymus gland index), X ± SD (%) (thymus gland; [2])	effect on the weight of the thymus gland (summary) (thymus gland)	anti-SRBC antibody formation, X ± SD (Unit) (anti-SRBC antibody; [3])	anti-SRBC antibody formation, X ± SD (Unit) (anti-SRBC antibody; [4])	anti-SRBC antibody formation, X ± SD (Unit) (anti-SRBC antibody; [5])	anti-SRBC antibody formation, X ± SD (Unit) (anti-SRBC antibody; [6])	effect on the synthesis of anti-SRBC antibody upon the antigenic challenge (summary) (anti-SRBC antibody)	NK cell cytotoxic activity, X ± SD (%) (NK cell; [7])	effect on the cytotoxic activity of NK cells (summary) (NK cell)	weight of spleen (spleen index), X ± SD (%) (spleen; [6])	effect on the weight of the spleen (summary) (spleen)	weight of thymus gland (thymus gland index), X ± SD (%) (thymus gland; [8])	X ± SD (stimulation index) (T lymphocyte; [8])	effect on T lymphocyte transformation (summary) (T lymphocyte)	weight of thymus gland (thymus gland index), X ± SD (%) (thymus gland; [9])	further results
Ala Ala Phe [CMS023]	0.23 ± 0.06 %	0.20 ± 0.02*^@^ %	increase	108 ± 21*^@^ Unit	166 ± 27*^@^ Unit	84 ± 11*^@^ Unit	110 ± 45*^@^ Unit	enhance	79 ± 12	increase	0.36 ± 0.06	decrease	–	–	–	–	–
Phe Asn Glu Gln (FNEQ; printed: Phe Asn Glu Gln) [CMS029]	0.21 ± 0.03 %	0.18 ± 0.05 %	increase	18 ± 7 Unit	147 ± 23*^@^ Unit	143 ± 13*^@^ Unit	115 ± 22*^@^ Unit	–	87 ± 4	increase	–	decrease	0.22 ± 0.04*^@^ %	1.7 ± 0.3	enhance	–	weight of spleen (spleen index), X ± SD (%) (spleen; Table 28, peptide 5 μg/kg/day (so in the source) i.p. 15 days (IFN-γ, IL-2 3×10^5 IU/kg/day)): 0.42 ± 0.04 %
Phe Gln Ser Phe (FQSF; printed: Phe Gln Ser Phe) [CMS033]	0.20 ± 0.02 %	0.18 ± 0.03 %	increase	78 ± 12*^@ Unit	128 ± 39*^@^ Unit	112 ± 15*^@^ Unit	143 ± 27*^@^ Unit	enhance	89 ± 8	increase	–	–	0.25 ± 0.04*^@^ %	–	–	–	–
Phe Glu Gln Asn Met (FEQNM; printed: Phe Glu Gln Asn Met) [CMS027]	–	0.21 ± 0.03*^@^ %	increase	99 ± 14*^@^ Unit	117 ± 45*^@^ Unit	93 ± 11*^@^ Unit	–	enhance	88 ± 8	increase	0.37 ± 0.03	decrease	0.20 ± 0.03*^ %	–	–	–	X ± SD (phagocytotic index) (mononuclear phagocyte; healthy mice, peptide 0.5 μg/kg/day i.p. 15 days (IFN-γ, IL-2 3×10^5 IU/kg/day), saline 5.1 ± 0.6): 6.4 ± 0.6; effect on the phagocytotic activity of mononuclear phagocyte (summary) (mononuclear phagocyte; statistically significant difference from saline in any of the dosage groups 0.5-500 μg/kg/day): enhance
TTYNSIM [CMS026]	0.31 ± 0.05*^@^ %	0.27 ± 0.02*^@^ %	increase	19 ± 6 Unit	191 ± 17*^@^ Unit	98 ± 9*^@^ Unit	–	–	89 ± 7	increase	–	–	0.20 ± 0.03*^ %	–	–	0.21 ± 0.05 %	NK cell cytotoxic activity, X ± SD (%) (NK cell; peptide 50 μg/kg/day i.p. 15 days (IFN-γ, IL-2 3×10^5 IU/kg/day), saline 56 ± 8): 76 ± 9 %
VVYPWTQRF [CMS002]	0.24 ± 0.05*^ %	0.21 ± 0.02*^@^ %	increase	4 ± 1 Unit	–	–	87 ± 18*^@ Unit	–	–	increase	–	–	–	1.8 ± 0.3	enhance	0.26 ± 0.06*^@^ %	X ± SD (stimulation index) (T lymphocyte; [2]): 2.6 ± 0.3*^@^; NK cell cytotoxic activity, X ± SD (%) (NK cell; peptide 0.5 μg/kg/day i.p. 15 days (IFN-γ, IL-2 3×10^5 IU/kg/day), saline 58 ± 7): 76 ± 9 %
